According to article PMC13224050, “Synthesis and characterization of a novel phosphatidylinositol 5-phosphate (PI(5)P) photoaffinity probe” (RSC Chemical Biology, 2026):

Key:
hUHRF1 = target: T1, hUHRF1 (Homo sapiens, UniProt Q96T88); experiment: microscale thermophoresis; assay type: binding
T1 construct: gene UHRF1; purified recombinant, bacterially expressed; domains UBL, TTD, PHD, SRA, RING
T1 sequence (Q96T88 1-793): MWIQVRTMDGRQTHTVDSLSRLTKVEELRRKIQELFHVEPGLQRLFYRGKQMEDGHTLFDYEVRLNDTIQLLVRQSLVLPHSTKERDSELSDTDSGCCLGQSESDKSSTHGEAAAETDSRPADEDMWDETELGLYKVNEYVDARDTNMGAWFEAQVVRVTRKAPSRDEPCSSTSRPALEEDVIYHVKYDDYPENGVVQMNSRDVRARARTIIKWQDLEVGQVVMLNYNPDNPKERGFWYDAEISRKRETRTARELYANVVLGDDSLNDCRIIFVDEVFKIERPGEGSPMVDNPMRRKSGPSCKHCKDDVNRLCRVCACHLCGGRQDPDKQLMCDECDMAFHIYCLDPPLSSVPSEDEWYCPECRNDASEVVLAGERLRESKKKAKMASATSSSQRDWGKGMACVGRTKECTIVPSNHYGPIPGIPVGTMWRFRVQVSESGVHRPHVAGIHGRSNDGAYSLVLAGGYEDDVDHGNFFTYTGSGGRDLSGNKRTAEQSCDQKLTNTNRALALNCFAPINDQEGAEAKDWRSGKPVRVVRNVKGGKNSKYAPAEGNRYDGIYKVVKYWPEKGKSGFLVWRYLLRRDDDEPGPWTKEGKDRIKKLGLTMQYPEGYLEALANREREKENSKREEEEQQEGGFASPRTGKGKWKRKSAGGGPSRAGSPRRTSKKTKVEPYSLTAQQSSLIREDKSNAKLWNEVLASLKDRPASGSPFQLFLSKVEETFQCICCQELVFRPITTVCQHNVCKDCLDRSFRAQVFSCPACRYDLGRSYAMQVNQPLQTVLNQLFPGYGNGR

hTAF3 = target: T2, hTAF3 (Homo sapiens, UniProt Q5VWG9); experiment: photo-crosslinking with TAMRA click SDS-PAGE; assay type: binding; conditions: covalent; 365 nm 30 min
T2 construct: gene TAF3; purified recombinant, bacterially expressed; abstract prints TAF1 instead
T2 sequence (Q5VWG9 1-929): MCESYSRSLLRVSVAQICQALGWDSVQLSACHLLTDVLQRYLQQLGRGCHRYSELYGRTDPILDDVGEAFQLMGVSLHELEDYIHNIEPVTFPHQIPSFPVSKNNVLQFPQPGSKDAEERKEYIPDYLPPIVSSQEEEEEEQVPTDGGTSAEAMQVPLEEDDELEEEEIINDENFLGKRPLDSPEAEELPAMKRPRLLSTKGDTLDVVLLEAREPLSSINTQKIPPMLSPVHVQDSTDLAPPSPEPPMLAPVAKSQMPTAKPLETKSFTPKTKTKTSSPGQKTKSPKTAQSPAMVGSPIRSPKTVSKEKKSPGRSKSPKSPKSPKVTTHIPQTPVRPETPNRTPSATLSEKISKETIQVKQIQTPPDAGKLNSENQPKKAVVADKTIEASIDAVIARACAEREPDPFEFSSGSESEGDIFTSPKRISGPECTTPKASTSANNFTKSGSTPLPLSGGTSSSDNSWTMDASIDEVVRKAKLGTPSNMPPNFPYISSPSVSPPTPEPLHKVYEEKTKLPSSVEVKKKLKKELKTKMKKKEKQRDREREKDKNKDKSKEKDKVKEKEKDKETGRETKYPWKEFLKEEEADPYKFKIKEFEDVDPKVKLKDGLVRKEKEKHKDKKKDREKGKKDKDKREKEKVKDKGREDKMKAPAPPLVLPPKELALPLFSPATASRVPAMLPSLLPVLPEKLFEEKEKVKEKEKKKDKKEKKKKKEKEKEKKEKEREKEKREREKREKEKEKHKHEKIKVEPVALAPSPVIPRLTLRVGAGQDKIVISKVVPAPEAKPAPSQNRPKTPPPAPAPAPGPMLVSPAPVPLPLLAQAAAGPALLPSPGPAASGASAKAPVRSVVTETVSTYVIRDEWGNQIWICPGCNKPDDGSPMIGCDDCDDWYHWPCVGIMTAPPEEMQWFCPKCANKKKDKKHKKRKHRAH

Kd (hUHRF1) [µM] | SMILES | photo-crosslinking with TAMRA click SDS-PAGE (hTAF3)
~8.6 | CCCCCCCCCCCCCCCC(=O)OC[C@H](COP(=O)(O)O[C@H]1[C@H](O)[C@@H](OP(=O)(O)O)[C@H](O)[C@@H](O)[C@H]1O)OC(=O)CCCCCCCCCCCCCCC [compound 1, di-C16 : 0 PI(5)P] | –
– | C#CCCCCCCCCCCC1(CCC(=O)O[C@H](COC(=O)CCCCCCCCCCCCCCC)COP(=O)(O)O[C@H]2[C@H](O)[C@@H](OP(=O)(O)O)[C@H](O)[C@@H](O)[C@H]2O)N=N1 [compound 9, PI(5)P diazirine probe] | confirming that the diazirine probe bound to bacterially expressed recombinant hUHRF1 and hTAF3
